Source: patent publication US6063814A, “Phorbol esters as anti-neoplastic and white blood cell elevating agents” (priority 1997, dated 2000)

Tested on: White Blood Cell (WBC)
Test: TPA induced white blood cell changes in patients with solid tumors undergoing chemotherapy
Format: in vivo, humans
Procedure: TPA solution in a sterile syringe was injected into 200 ml of saline and mixed well for i.v. infusion.
Patients undergoing chemotherapy for the treatment of solid tumors.
Subject No. (11), person. Diagnosis: malignant lymphoma. The patient had received adramycin, vincristine, and hormonal treatment. The blood cell counts were decreased to: Hb: 78 g/L, WBC: 0.7×10^9 /L, platelet: 245×10^9 /L. 0.25 mg TPA was administered to the patient 4 times. The blood cell counts improved to: Hb: 76 g/L, WBC: 6.8×10^9 /L, platelet: 331×10^9 /L. Chemotherapy was then continued for 5 more days, and followed by one dose of 0.5 mg TPA. The WBC count was maintained at 3.0×10^9 /L. The patient is still receiving treatment.
Subject No. (12), person. Diagnosis: brain tumor. Blood profile after chemotherapy was: Hb: 119 g/L, WBC: 3.0×10^9 /L, platelet: 399×10^9 /L. 0.25 mg TPA was given to the patient once. On the day after the TPA treatment, the blood profile was Hb: 123 g/L, WBC: 4.5×10^9 /L, platelet: 436×10^9 /L. The patient received further chemotherapy.
Subject No. (13), person. Diagnosis: lung cancer. After chemotherapy, their blood cell counts were decreased to: Hb: 76 g/L, WBC: 0.9×10^9 /L, platelet: 100×10^9 /L. 0.25 mg TPA was given to the patient twice. On the day after the TPA treatment, Hb: 74 g/L, WBC: 2.5×10^9 /L, platelet: 110×10^9 /L. The patient is still receiving treatment.
Subject No. (14), person. Diagnosis: breast cancer. The WBC after chemotherapy was 3.8×10^9 /L. 0.25 mg of TPA was given to the patient once. The WBC on the day after the TPA treatment was 8.0×10^9 /L.
Subject No. (15), person. Diagnosis: Esophageal Cancer. Surgery was performed, followed by chemotherapy using cisplatin, 5-fluorouracil. Blood profile (before TPA): WBC: 2.4×10^9 /L; neutrophil: 83%, lymphocyte: 17%; platelet: 150×10^9 /L; RBC: 3.43×10^12 /L; Hb: 107 g/L. TPA dosage: 0.25 mg. […] The cardiac, hepatic, renal and pulmonary functions were normal.
Subject No. (16), person. Diagnosis: Esophageal Cancer. Surgery was performed, followed by chemotherapy using VP16, MTX, MMC and cisplatin. TPA dose: 0.25 mg. Blood profile (before TPA): WBC: 2.4×10^9 /L; neutrophil: 67%; lymphocyte: 23%; platelet: 101×10^9 /L; RBC: 3.45×10^12 /L; Hb: 114 g/L. Blood profile (one day after TPA): WBC: 5.2×10^9 /L; neutrophil: 87%; lymphocyte: 13%; platelet 60×10^9 /L; RBC: 3.76×10^12 /L; Hb: 122 g/L. Blood profile (2 days after TPA administration).
Subject No. (17), person. Diagnosis: breast cancer. Surgery was performed, followed by chemotherapy using CTX, MTX, and 5-FU. TPA dose: 0.25 mg×2 (Second dose was 4 days after 1st dose). […] The cardiac, hepatic, renal and pulmonary functions were normal.
Subject No. (18), person. Diagnosis: Colon cancer. Surgery was performed, followed by chemotherapy using Cisplatin, VP16, and 5-FU. TPA dose: 0.25 mg×2 (2nd TPA dose was administered 24 hrs after 1st TPA dose). […] Cardiac hepatic, renal and pulmonary functions were normal.
Subject No. (19), person. Diagnosis: lung cancer metastasized to adrenal gland. Surgery was performed, followed by chemotherapy using MMC, VCR, and CTX. TPA dosage: 0.25 mg×2 (2nd TPA dose was administered 24 hrs after 1st TPA dose). […] Cardiac, hepatic renal and pulmonary functions were normal.
Subject No. (20), person. Diagnosis: esophageal cancer metastasized to liver, lung and brain. The patient received chemotherapy using Taxol, cisplatin, 5-FU and Semustial. Total TPA dosage: 2mg. Blood profile (before TPA): WBC: 0.7×10^9 /L; neutrophil: 29%; lymphocyte: 71%; platelet: N/A; RBC: 2.82×10^12 /L; Hb: 87 g/L. TPA treatment schedule. On the first and third day, 0.25 mg was given and on the 5th, 7th and 9th day 0.5 mg of TPA was given. […] Cardiac, hepatic, renal and pulmonary functions were normal.
Subject No. (21), person. Diagnosis: lymphoma metastasized to bone marrow. […]

[1] = subject 20, day 2, TPA total 2 mg over 9 days
[2] = subject 20, day 4, TPA total 2 mg over 9 days
[3] = subject 20, day 6, TPA total 2 mg over 9 days
[4] = subject 20, day 8, TPA total 2 mg over 9 days
[5] = subject 20, day 13, TPA total 2 mg over 9 days
[6] = subject 21, day 2, TPA total 2.5 mg, days 1-8
[7] = subject 21, day 4, TPA total 2.5 mg, days 1-8
[8] = subject 21, day 7, TPA total 2.5 mg, days 1-8
[9] = subject 21, day 9, TPA total 2.5 mg, days 1-8

CCCCCCCCCCCCCC(=O)O[C@@H]1[C@@H](C)[C@@]2(O)[C@@H](C=C(CO)C[C@]3(O)C(=O)C(C)=C[C@@H]23)[C@@H]2C(C)(C)[C@]12OC(C)=O [TPA, Phorbol 12-Myristate-13-Acetate]
lymphocyte [1]: 34%
neutrophil [1]: 66%
platelet [1]: 8.2e+10 L⁻¹
Hb [2]: 58 g/L
RBC [2]: 2.09e+12 L⁻¹
WBC [2]: 1.1e+09 L⁻¹
lymphocyte [2]: 9%
neutrophil [2]: 91%
platelet [2]: 3.9e+10 L⁻¹
Hb [3]: 70 g/L
RBC [3]: 1.9 ×10^12
WBC [3]: 1.9e+09 L⁻¹
lymphocyte [3]: 5%
neutrophil [3]: 95%
platelet [3]: 4.3e+10 L⁻¹
Hb [4]: 61 g/L
RBC [4]: 1.71e+12 L⁻¹
WBC [4]: 2.3e+09 L⁻¹
lymphocyte [4]: 9%
neutrophil [4]: 91%
platelet [4]: 9e+10 L⁻¹
Hb [5]: 57 g/L
RBC [5]: 1.73e+12 L⁻¹
WBC [5]: 1.9e+09 L⁻¹
lymphocyte [5]: 10%
neutrophil [5]: 90%
platelet [5]: 3.2e+10 L⁻¹
Hb [6]: 117 g/L
RBC [6]: 4.15e+12 L⁻¹
WBC [6]: 6e+08 L⁻¹
platelet [6]: 6.9e+10 L⁻¹
Hb [7]: 109 g/L
RBC [7]: 3.95e+12 L⁻¹
WBC [7]: 6e+08 L⁻¹
lymphocyte [7]: 72%
neutrophil [7]: 28%
platelet [7]: 6.8e+10 L⁻¹
Hb [8]: 110 g/L
RBC [8]: 4.22e+12 L⁻¹
WBC [8]: 8e+08 L⁻¹
lymphocyte [8]: 12%
neutrophil [8]: 88%
platelet [8]: 6e+10 L⁻¹
Hb [9]: 112 g/L
RBC [9]: 4.02e+12 L⁻¹
WBC [9]: 1.5e+09 L⁻¹
lymphocyte [9]: 2%
neutrophil [9]: 80%
platelet [9]: 6.9e+10 L⁻¹
resolution of injection site symptoms (subject 25, TPA 0.25 mg): disappeared the second day after they appeared
injection site reaction (subject 25, TPA 0.25 mg, probably caused by infusion needle): red, swollen in appearance and painful
duration of raised temperature (subject 26, TPA 0.25 mg): 3 h
Hb (three days after TPA 0.25 mg): 123 g/L
WBC (three days after TPA 0.25 mg): 2.9e+09 L⁻¹
lymphocyte (three days after TPA 0.25 mg): 27%
neutrophil (three days after TPA 0.25 mg): 73%
